The text below walks through data of patent US6653442B1, “Protegrins” (priority 1993, dated 2003).

One data set relates to pepsin. As to conditions: 4 hours at pH 2.0 with 0.5 μg/ml pepsin, then neutralized.
The test system of data set [1] is lipid polysaccharide (LPS) of E. coli strain 0.55B5. In words: Limulus amebocyte lysate (LAL) test for endotoxin binding. The class given is biochemical. As to conditions: for gel formation in LAL test: LPS 0.05 endotoxin unit/ml.
A further data set has as its system K. pneumoneae 270. Put plainly: Radial diffusion assay in agarose gels, K. pneumoniae. Type of data set: cell-based.
Another data set concerns the target human leukocyte elastase (Homo sapiens, UniProt P08246). The class given is in vitro ADME. As to conditions: pH 7.
The test system of a further data set is HIVJR-CSF and HIVJR-FL. Put plainly: HIV infection of human peripheral blood mononuclear cells, p24 antigen.
The next data set relates to T. pallidum. In words: Treponema pallidum immobilization assay. Type of data set: cell-based.
A further data set deals with C. albicans, strain 820. Type of data set: cell-based, Candida albicans. As to conditions: for activity against C. albicans in NaCl (FIG. 5a): in the presence of 100 mM NaCl; for antifungal activity against Candida albicans (FIG. 4c): radial diffusion, underlay agar pH 6.5.
For data set [2], the system named is Listeria monocytogenes, strain EGD. Put plainly: Radial diffusion assay in agarose gels, L. monocytogenes. Type of data set: cell-based. The conditions noted are these: for antibacterial activity against Listeria monocytogenes (FIG. 4b): radial diffusion, underlay agar pH 6.5. As for the experimental part: Aliquots (66 μl) of each fraction were dried by vacuum centrifugation and resuspended in 6.6 μl of 0.01% acetic acid. Five μl samples of this concentrate were tested for antimicrobial activity against E. coliML-3, L. monocytogenes, strain EGD and C. albicans, strain 820, using radiodiffusion and gel overlay techniques as described by Lehrer, R. I. et al. J Immunol Meth (1991) 137:167-173. […] The units of activity in the radial diffusion assay were measured as described; 10 units correspond to a 1 mm diameter clear zone around the sample well. Activity was found in a large number of fractions.
The radial diffusion assay in agarose gels described in Example 1 was also used to test the activity of the purified protegrins. FIGS. 4a, 4b and 4c show the results against three test organisms in units described as above.
The antimicrobial activity of the linearalized forms was also compared with that of the native protegrins. Both linearalized and cyclic forms of the protegrins tested continue to show antimicrobial activity, although the effectiveness of these peptides as antimicrobials depends on the nature of the target organism and on the test conditions. The antimicrobial activity of native PG-1 and its linearalized form (cam-PG-1) and PG-3 and its linearalized form (cam-PG-3) were tested according to the procedure set forth in Example 1 as described by Lehrer, R. I. et al. J Immunol Meth (1991) 137:167-173.
Using standard solid phase techniques, a protegrin having the amino acid sequence of PG-1, but wherein every amino acid is in the D form was prepared. This form of protegrin was tested against E. coli, L. monocytogenes, C. albicans and other microbes in the absence and presence of protease and otherwise as described for the radiodiffusion assay in agarose gels set forth in Example 1.
The kite and bullet PG-1 compounds prepared in Example 12 were tested for antimicrobial activity using the radial diffusion assay described in Example 1 as published by Lehrer, R. I. et al., J Immunol Meth (1991) 137:167-173, except that the underlay agars contained […] sodium phosphate buffer with a final pH of 7.4. As described in Example 1, 0.3 mg/ml tripticase soy broth powder and 1% agarose were used as well in the underlay agar. In some cases 100 mM NaCl or RPMI plus 2.5% normal human serum (NHS) was added to the agar.

The test system of the next data set is Staphylococcus aureus. Put plainly: Radial diffusion assay in agarose gels, S. aureus. Type of data set: cell-based.
Data set [3] relates to Trichomonas vaginallis strain C1 (ATCC 30001); strains MR and TV. In words: Trichomonas vaginallis exposure assay.
For another data set, the system named is E. coli ML-35P. In words: Radial diffusion assay in agarose gels, E. coli. Type of data set: cell-based. As to conditions: for activity against E. coli in NaCl (FIG. 5b): in the presence of 100 mM NaCl; for antibacterial activity against E. coli (FIG. 4a): radial diffusion, underlay agar pH 6.5.
The subject of data set [4] is N. gonorrhoeae strains FA 19 and F 62.
Description: Nonpiliated transparent variants of strains FA 19 and F 62 were propagated on GCB agar plates containing glucose and iron supplements overnight at 37° C. under 3.8% V/V CO2. These strains were chosen for their adaptability to the assay.
The overnight growth is removed from the agar plate and suspended in GCB broth containing supplements and sodium bicarbonate and grown with shaking at 37° C. to mid log phase. The culture is diluted 1:100 in GCB broth to give about 10^6 CFU/ml and serial dilutions were plated onto GCB agar.
Ten μl of each dilution is added to a sterile polystyrene tube containing 90 μl of diluted bacteria and the tubes are shaken at 37° C. for 45 minutes. The contents are serially diluted 1:10 and plated on to GCB agar plates which are incubated in a CO2 incubator. CFU are counted after 24 hours and the log bactericidal activity calculated.
Data set [5] addresses human leukocyte cathepsin G (Homo sapiens, UniProt P08311). Type of data set: in vitro ADME. The conditions noted are these: pH 7.
A further data set concerns L. monocytogenes. In words: Radial diffusion assay in 25 mM borate buffer, L. monocytogenes. The class given is cell-based. The conditions noted are these: listed as nPG-3.
In a further data set the test system is E. coli. Put plainly: Antimicrobial activity with and without lysozyme in borate buffered saline. Type of data set: cell-based. As to conditions: presence vs absence of lysozyme. An excerpt: This effect was more pronounced when the PG-3 was autoclaved and similar patterns were obtained for both the free-acid form and the amide. Accordingly, the protegrins may be used as preservatives in such compositions or as antimicrobials for treatment of eye infections.

A further data set relates to Candida albicans. Put plainly: Radial diffusion assay in 25 mM borate buffer, Candida albicans. The class given is cell-based. The conditions noted are these: listed as nPG-3.
For data set [6], the system named is Pseudomonas aeruginosa (Psa). Put plainly: Minimal inhibitory concentration, Psa. The class given is cell-based. On the procedure: (§1) The minimal inhibitory concentrations (MICs) of a variety of protegrins were determined against the following organisms: methicillin resistant Staphylococcus aureus (MRSA), Pseudomonas aeruginosa (Psa), vancomycin resistant Enterococcus fecium (VREF), Candida albicans (Candid) and Escherichia coli (E. Co), and are shown in Table 9.

Data set [7] deals with methicillin resistant Staphylococcus aureus (MRSA). In words: Minimal inhibitory concentration, MRSA. The class given is cell-based. As for the experimental part:
as §1

Data set [8] deals with vancomycin resistant Enterococcus fecium (VREF). Put plainly: Minimal inhibitory concentration, VREF. The class given is cell-based. On the procedure: as §1

Bridge positions count the residues as written; N and C are the ends. Square brackets hold non-standard residues; d marks the D form. Ends that are not written are not given here. Peptide text beside a SMILES is read from it. Sar = CNCC(=O)O

Sequence of human leukocyte elastase (P08246 30-267): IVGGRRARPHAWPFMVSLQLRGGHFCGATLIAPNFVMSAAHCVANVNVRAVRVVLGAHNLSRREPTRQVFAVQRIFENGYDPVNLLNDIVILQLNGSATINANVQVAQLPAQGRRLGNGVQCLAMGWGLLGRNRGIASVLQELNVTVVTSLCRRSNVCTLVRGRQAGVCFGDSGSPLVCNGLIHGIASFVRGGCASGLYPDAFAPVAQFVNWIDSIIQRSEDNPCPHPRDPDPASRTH
Sequence of human leukocyte cathepsin G (P08311 21-244): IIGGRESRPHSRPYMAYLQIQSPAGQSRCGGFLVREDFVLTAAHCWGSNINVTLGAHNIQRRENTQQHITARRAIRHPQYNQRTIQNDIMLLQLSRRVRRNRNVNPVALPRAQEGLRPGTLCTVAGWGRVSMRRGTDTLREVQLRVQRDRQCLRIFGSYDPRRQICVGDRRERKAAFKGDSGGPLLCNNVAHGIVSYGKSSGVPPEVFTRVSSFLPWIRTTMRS
Description for C. albicans, strain 820: Similarly, using C. albicans as a target organism, underlayers were prepared with 10 mM sodium phosphate with and without 10% normal human serum.
Description for E. coli ML-35P: Aliquots (66 μl) of each fraction were dried by vacuum centrifugation and resuspended in 6.6 μl of 0.01% acetic acid. […] The units of activity in the radial diffusion assay were measured as described; 10 units correspond to a 1 mm diameter clear zone around the sample well.
Description for HIVJR-CSF and HIVJR-FL: Briefly, the mononuclear cell fraction is recovered from normal donor leukopacs from the American Red Cross using a Ficoll-hypaque density gradient. The mononuclear cells are resuspended at 1×10^6 cells per ml in RPMI 1640 medium with 20% fetal bovine serum, 1% penn/strep with fungizone and 0.5% PHA and incubated 24 hours at 37° C. in 5% CO2. The cells are centrifuged, washed and then expanded for 24 hours in growth medium.
Non-laboratory adapted, cloned HIVJR-CSF and HIVJR-FL were electroporated into the human peripheral blood mononuclear cells prepared as described above. Titers were determined and in general, multiplicities of infection (MOI) of about 4,000 infectious units per cell are used (which corresponds to 25-40 picograms per ml HIV p24 antigen in the supernatant).
In the assay, the HIV stocks prepared as above were diluted to the correct MOI and the PBM are added to 24 well plates at a concentration of 2×10^6 per ml. One μl total volume is added to each well. The peptide to be tested is added in growth medium to achieve the final desired concentration. Then the appropriate number of MOI are added. To assay viral growth, 200 μl of supernatant is removed on days 3 and 7 and the concentration of p24 antigen is determined using a commercial assay (Coulter Immunology, Hialeah, Fla.). Controls include duplicate wells containing cells alone, cells plus peptide at 5 μg/ml cells with virus but not peptide and cells with virus in the presence of AZT at 10^−5 M-10^−8 M.
Description for T. pallidum: Bacteriocidal activity against this organism, which is the etiologic agent of syphilis, was also tested. Peptides were evaluated at a series of concentrations of 1.758 μg to 56.25 μg in 90 μl of unheated normal rabbit serum. The serum served as a nutrient for the spirochetes to allow their survival during incubation as well as providing a source of complement. Ten μl of a suspension of T. pallidum containing about 5×10^7/μl organisms was added to each tube and the mixtures with the appropriate peptides were incubated at 34° C. under 95 k N2 and 5% CO2. At time zero, just prior to incubation, 4 hours and 16 hours, 25 randomly selected organisms were examined for the presence or absence of motility. The 50 k immobilizing end point (IE50) was calculated to indicate the concentration needed to immobilize 50% of the spirochetes.

As for `CC(C)C[C@H](NC(=O)[C@H](CCCNC(=N)N)NC(=O)CNC(=O)CNC(=O)[C@@H](N)CCCNC(=N)N)C(=O)N[C@H]1CSSC[C@@H](C(=O)N[C@H](C(=O)NCC(=O)N[C@@H](CCCNC(=N)N)C(N)=O)C(C)C)NC(=O)[C@H](C(C)C)NC(=O)[C@@H]2CSSC[C@H](NC(=O)[C@H](Cc3ccc(O)cc3)NC1=O)C(=O)N[C@@H](CCCNC(=N)N)C(=O)N[C@@H](CCCNC(=N)N)C(=O)N[C@@H](CCCNC(=N)N)C(=O)N[C@@H](Cc1ccccc1)C(=O)N2` [PG-1, R-G-G-R-L-C-Y-C-R-R-R-F-C-V-C-V-G-R], in the data set on pepsin, the “residual antimicrobial activity against C. albicans, E. coli and L. monocytogenes after pepsin” value is given as “fully retained”. Also, the “gel formation in LAL test” value in data set [1] (1.0 μg peptide in 0.2 ml), in data set [1] (2.5 μg peptide in 0.2 ml), in data set [1] (5 μg peptide in 0.2 ml) and in [1] (10 μg peptide in 0.2 ml) was “no gel” throughout. In addition, the “gel formation in LAL test, cyclic vs linearalized (Table 3)” value in [1] (2.5 μg peptide) and in data set [1] (5 μg peptide) was “no gel” throughout. The “antibacterial activity against K. pneumoneae (FIG. 4e)” value with K. pneumoneae 270 is given as “inhibit the growth”. Further, the “degradation by human leukocyte elastase” value on human leukocyte elastase was “not degraded”. The “Activity against human STD pathogens: HIV-1” value in the data set with HIVJR-CSF and HIVJR-FL is reported as “Active”. For the same molecule, the “antiviral activity by time of addition” value was “showed antiviral activity” with HIVJR-CSF and HIVJR-FL (2 hours prior to virus, at the time of virus, or 2 hours after infection); “no antiviral activity” in the data set on HIVJR-CSF and HIVJR-FL (added 24 hours after infection). For the same molecule, the “Activity against human STD pathogens: Treponema pallidum” value in the data set on T. pallidum is given as “Active”. For the same molecule, the “activity against C. albicans in NaCl (FIG. 5a)” value in the data set on C. albicans, strain 820 was “retain their activity”. For the same molecule, the “antifungal activity against Candida albicans (FIG. 4c)” value with C. albicans, strain 820 was “effective”. Besides, in data set [2] (absence of proteases), the “inhibition of growth of L. monocytogenes (FIG. 12d)” value was “comparably active”. In addition, the “inhibition of growth of L. monocytogenes (FIG. 12c)” value in data set [2] (presence of trypsin, chymotrypsin) was “adversely affected”. The “antibacterial activity against Listeria monocytogenes (FIG. 4b)” value in data set [2] was “effective”. Besides, the “antibacterial activity against S. aureus (FIG. 4d)” value in the data set on Staphylococcus aureus is “inhibit the growth”. In [3], the “Activity against human STD pathogens: Trichomonas vaginalis” value is listed as “Moderately”. Moreover, the “growth in Diamond's medium after exposure” value in [3] (strain C1, 50 μg/ml) was “failed to grow”. In addition, the “motility of T. vaginallis” value in data set [3] (strain C1, 50 μg/ml, RPMI+1% fetal calf serum, within a few minutes) is “became stationary”. For the same molecule, in data set [3] (strain C1, 50 μg/ml, over the ensuing 15-30 minutes), the “lysis of T. vaginallis” value was “lysed”. Further, in data set [3] (strains MR and TV, 100 and 50 μg/ml), the “susceptibility of metronidazole-resistant clinical isolates” value is listed as “susceptible”. For the same molecule, the “inhibition of growth of E. coli (FIG. 12a)” value in the data set on E. coli ML-35P (absence of protease) is “equally effective”. For the same molecule, the “activity against E. coli in NaCl (FIG. 5b)” value with E. coli ML-35P is on record as “retain their activity”. In the data set on E. coli ML-35P, the “antibacterial activity against E. coli (FIG. 4a)” value was “more effective against E. coli ML-35P than HNP-1 and only slightly less effective than NP-1”. Also, the “Activity against human STD pathogens: Neisseria gonorrhoeae” value in data set [4] was “Active”. Also, in data set [5], the “degradation by human leukocyte cathepsin G” value is “not degraded”.

With `CC(C)C[C@H](NC(=O)CNC(=O)CNC(=O)CNC(=O)[C@@H](N)CCCNC(=N)N)C(=O)N[C@H]1CSSC[C@@H](C(=O)N[C@H](C(=O)NCC(=O)N[C@@H](CCCNC(=N)N)C(N)=O)C(C)C)NC(=O)[C@H](C(C)C)NC(=O)[C@@H]2CSSC[C@H](NC(=O)[C@H](Cc3ccc(O)cc3)NC1=O)C(=O)N[C@@H](CCCNC(=N)N)C(=O)N[C@@H](CCCNC(=N)N)C(=O)N[C@@H](CCCNC(=N)N)C(=O)N[C@@H](Cc1ccccc1)C(=O)N2` [PG-3, R-G-G-G-L-C-Y-C-R-R-R-F-C-V-C-V-G-R] (H-RGGGLCYCRRRFCVCVGR-NH2; disulfide 6-15, 8-13; N-terminus assumed), the “residual antimicrobial activity against C. albicans, E. coli and L. monocytogenes after pepsin” value in the data set with pepsin was “fully retained”. Also, the “gel formation in LAL test, cyclic vs linearalized (Table 3)” value in [1] (2.5 μg peptide) and in data set [1] (5 μg peptide) was “no gel” each time. For the same molecule, the “gel formation in LAL test” value in data set [1] (2.5 μg peptide in 0.2 ml, listed as nPG-3) is given as “trace”; in data set [1] (5 μg peptide in 0.2 ml) it was “no gel”; in data set [1] (10 μg peptide in 0.2 ml), “no gel”. Moreover, the “degradation by human leukocyte elastase” value on human leukocyte elastase is “not degraded”. The “activity against Candida albicans in fetal calf serum (FIG. 5c)” value in the data set on C. albicans, strain 820 (90% fetal calf serum) is on record as “retained”. Moreover, the “activity against C. albicans in NaCl (FIG. 5a)” value with C. albicans, strain 820 is on record as “retain their activity”. For the same molecule, the “antifungal activity against Candida albicans (FIG. 4c)” value in the data set with C. albicans, strain 820 is on record as “effective”. Also, the “antibacterial activity against Listeria monocytogenes (FIG. 4b)” value in [2] is recorded as “effective”. Besides, the “motility of T. vaginallis” value in data set [3] (25 μg/ml) is given as “retained their motility”. The “activity against E. coli in NaCl (FIG. 5b)” value with E. coli ML-35P is “retain their activity”. Moreover, the “antibacterial activity against E. coli (FIG. 4a)” value with E. coli ML-35P was “more effective against E. coli ML-35P than HNP-1 and only slightly less effective than NP-1”. Moreover, the “ESTIMATED MINIMAL BACTERICIDAL CONCENTRATIONS” value is 25.0 µg/mL in the data set with L. monocytogenes (25 mM borate buffer), 7.0 µg/mL with L. monocytogenes (borate buffer + 120 mM NaCl) and 5.7 µg/mL in the data set with L. monocytogenes (borate buffer + EDTA & NaCl). Besides, the “degradation by human leukocyte cathepsin G” value in data set [5] is “not degraded”. Moreover, the “effect of lysozyme on effectiveness against E. coli” value in the data set with E. coli is “enhanced the effectiveness”. Also, the “ESTIMATED MINIMAL FUNGICIDAL CONCENTRATIONS” value is 32.0 µg/mL with Candida albicans (25 mM borate buffer), 9.0 µg/mL in the data set on Candida albicans (borate buffer + 120 mM NaCl) and 8.0 µg/mL in the data set with Candida albicans (borate buffer + EDTA & NaCl).

Take “R-G-G-R-L-C-Y-C-R-X-R-F-C-V-C-V-G-R (X=NMeG) (RGGRLCYCR[Sar]RFCVCVGR-NH2; ends and bridges not checked) [IB-342]”: the “minimal inhibitory concentration (MIC) Psa” value in [6] is given as 1.67. For the same molecule, the “minimal inhibitory concentration (MIC) MRSA” value in data set [7] worked out at 4. In addition, the “minimal inhibitory concentration (MIC) VREF” value in [8] came out at 0.83.

For “R-G-G-R-L-C-Y-C-R-X-R-F-C-V-C-V-G-R-OH (X=NMeG) (RGGRLCYCR[Sar]RFCVCVGR-OH; ends and bridges not checked) [IB-341]”, in [6], the “minimal inhibitory concentration (MIC) Psa” value worked out at 2. Also, in data set [7], the “minimal inhibitory concentration (MIC) MRSA” value came to 5.33. Moreover, in [8], the “minimal inhibitory concentration (MIC) VREF” value is recorded as 1.
